The source of these data is US7371536B2, “Methods for transporting vitamin C” (priority 1999, dated 2008).

The target of one experiment is T1, rat SVCT1 (Rattus norvegicus, UniProt Q9WTW7).
T1 construct: expressed in transfected cells; host or cells: Xenopus laevis oocytes injected with cRNA
Put plainly: Two-microelectrode voltage-clamp of Xenopus oocytes expressing rat SVCT1. The format is cell-based. As to the method: Rat SVCT1 and SVCT2 clones were obtained by isolating SVCT1 cDNA from rat kidney by expression cloning as described in Hediger et al., Methods Enzymol. 296:17-52 (1998). The SVCT2 cDNA was subsequently isolated by PCR-based homology screening of a rat brain cDNA library. […] Radiotracer and voltage-clamp experiments were performed (at 22° C.) in Xenopus oocytes two to seven days after injection with ˜25 ng of SVCT1 or SVCT2 cRNA synthesized in vitro. Radiotracer uptake was determined by incubating 6-10 oocytes for 30 or 60 min in standard 100 mM Na^+ or Na^+-free media with 10-600 μM L-[^14C]ascorbic acid.
Functional characterization of SVCT1 and SVCT2 in Xenopus oocytes—Oocytes were isolated from Xenopus laevis (under 2-aminoethylbenzoate anaesthesia), treated with collagenase A and stored at 18° C. in modified Barths' medium. Oocytes were injected with ≈25 ng of SVCT1 or SVCT2 cRNA synthesized in vitro, or water only (control), and incubated 2-7 days before radiotracer or voltage-clamp experiments were performed. Standard Na^+ uptake medium comprised 100 mM NaCl, 2 mM KCl, 1 mM CaCl2, 1 mM MgCl2, 10 mM HEPES (pH 7.5 with Tris base). For Na^+-free or low-Na^+ media, NaCl was replaced by equimolar choline chloride; likewise, Cl^− was replaced by gluconate for Cl^−-free medium. For pH-sensitivity experiments, Na^+ media were buffered at pH 5.5-8.0 using 0-5 mM MES, 0-5 mM HEPES and 0-5 mM Tris base. L-Ascorbic acid-containing solutions were freshly-prepared (without dithiothreitol) and used immediately.
Radiotracer uptake was determined by incubating 6-10 oocytes for 30 or 60 min in standard Na^+ or Na^+-free media (at 22° C.) with 10-600 μM L-[1-^14C]ascorbic acid (final specific activity 0.3 GBq/mmol). Oocytes were solubilized with 10% SDS and [^14C]-content was measured by liquid scintillation counting. A two-microelectrode voltage-clamp was used to measure currents in control oocytes and oocytes injected with rat SVCT1 or rat SVCT2 cRNA. Microelectrodes (resistance 0.5-5 MΩ) were filled with 3 M KCl. Oocytes were superfused at 22° C. in standard Na^+ medium and clamped at a holding potential (Vh) of −50 mV. For continuous current monitoring at Vh=−50 mV, the current was low-pass filtered at 20 Hz (sampling at 1 Hz). Additionally, step-changes in membrane potential (Vm) were applied (from +50 mV to −150 mV in 20-mV increments), each for a duration of 100 ms, before and after the addition of substrate; current was low-pass filtered at 500 Hz and digitized at 5 kHz. Test solutions were always washed out with substrate-free medium (100 mM choline chloride) at pH 7.5 for several minutes. Steady-state data (obtained by averaging the points over the final 16.7 ms at each Vm step when step-changes were applied) were fitted to equation (1) below, for which I is the evoked current (i.e., the difference in steady-state current measured in the presence and absence of substrate), Imax the derived current maximum, S the concentration of substrate S (Na^+ or L-ascorbic acid),
[formula] the substrate concentration at which current was half-maximal, and nH the Hill coefficient for S. (For radiotracer experiments, I was replaced with velocity V and Imax replaced with the derived maximal velocity, Vmax.)

Another experiment addresses T2, rat SVCT2 (Rattus norvegicus, UniProt Q9WTW8).
T2 construct: expressed in transfected cells; host or cells: Xenopus laevis oocytes injected with cRNA (vector pTLN2)
The experiment can be described thus: Two-microelectrode voltage-clamp of Xenopus oocytes expressing rat SVCT2. The experiment is classed as cell-based. The note with it: oocytes expressing SVCT2, in the presence of Na^+. As to the method:
Rat SVCT1 and SVCT2 clones were obtained by isolating SVCT1 cDNA from rat kidney by expression cloning as described in Hediger et al., Methods Enzymol. 296:17-52 (1998). The SVCT2 cDNA was subsequently isolated by PCR-based homology screening of a rat brain cDNA library. A 2.5-kb rabbit cDNA with 96% identity to residues 96-505 of the rat SVCT2 was obtained by RT-PCR. Radiotracer and voltage-clamp experiments were performed (at 22° C.) in Xenopus oocytes two to seven days after injection with ˜25 ng of SVCT1 or SVCT2 cRNA synthesized in vitro. Radiotracer uptake was determined by incubating 6-10 oocytes for 30 or 60 min in standard 100 mM Na^+ or Na^+-free media with 10-600 μM L-[^14C]ascorbic acid. […]
Radiotracer uptake was determined by incubating 6-10 oocytes for 30 or 60 min in standard Na^+ or Na^+-free media (at 22° C.) with 10-600 μM L-[1-^14C]ascorbic acid (final specific activity 0.3 GBq/mmol). Oocytes were solubilized with 10% SDS and [^14C]-content was measured by liquid scintillation counting. […] Steady-state data (obtained by averaging the points over the final 16.7 ms at each Vm step when step-changes were applied) were fitted to equation (1) below, for which I is the evoked current (i.e., the difference in steady-state current measured in the presence and absence of substrate), Imax the derived current maximum, S the concentration of substrate S (Na^+ or L-ascorbic acid), […]

T1 sequence (Q9WTW7 whole entry): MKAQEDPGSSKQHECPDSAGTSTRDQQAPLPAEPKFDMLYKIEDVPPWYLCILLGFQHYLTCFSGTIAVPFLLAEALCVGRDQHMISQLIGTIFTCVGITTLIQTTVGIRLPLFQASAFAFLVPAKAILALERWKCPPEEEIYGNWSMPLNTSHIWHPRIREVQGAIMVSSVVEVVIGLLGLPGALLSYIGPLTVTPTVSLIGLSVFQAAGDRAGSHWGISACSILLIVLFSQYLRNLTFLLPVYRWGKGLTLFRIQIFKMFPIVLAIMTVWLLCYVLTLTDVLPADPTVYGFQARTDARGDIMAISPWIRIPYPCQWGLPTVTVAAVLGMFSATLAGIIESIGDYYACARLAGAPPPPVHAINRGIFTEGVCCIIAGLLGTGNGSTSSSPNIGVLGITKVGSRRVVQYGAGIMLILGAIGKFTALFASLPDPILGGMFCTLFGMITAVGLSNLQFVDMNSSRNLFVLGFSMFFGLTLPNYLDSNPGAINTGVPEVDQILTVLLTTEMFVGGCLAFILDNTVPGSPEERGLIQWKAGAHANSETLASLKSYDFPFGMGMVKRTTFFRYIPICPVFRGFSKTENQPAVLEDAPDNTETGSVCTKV
T2 sequence (Q9WTW8 whole entry): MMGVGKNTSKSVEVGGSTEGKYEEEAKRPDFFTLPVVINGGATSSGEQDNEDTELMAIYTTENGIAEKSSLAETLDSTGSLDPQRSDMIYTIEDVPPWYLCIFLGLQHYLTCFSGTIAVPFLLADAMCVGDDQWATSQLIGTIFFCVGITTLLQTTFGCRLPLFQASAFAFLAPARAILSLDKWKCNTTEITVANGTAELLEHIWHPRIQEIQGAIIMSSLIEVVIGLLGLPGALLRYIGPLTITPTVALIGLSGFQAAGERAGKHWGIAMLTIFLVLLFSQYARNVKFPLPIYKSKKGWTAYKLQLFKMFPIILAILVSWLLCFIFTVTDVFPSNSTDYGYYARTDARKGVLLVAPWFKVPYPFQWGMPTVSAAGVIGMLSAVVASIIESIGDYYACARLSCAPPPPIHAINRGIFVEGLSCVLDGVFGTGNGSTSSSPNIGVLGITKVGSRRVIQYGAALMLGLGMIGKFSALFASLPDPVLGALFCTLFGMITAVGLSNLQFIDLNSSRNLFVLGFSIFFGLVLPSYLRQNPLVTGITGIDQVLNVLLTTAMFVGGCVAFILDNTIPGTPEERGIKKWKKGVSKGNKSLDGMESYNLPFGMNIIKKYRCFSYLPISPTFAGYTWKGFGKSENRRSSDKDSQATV

For the molecule `O=C1O[C@H]([C@@H](O)CO)C(O)=C1O` [L-ascorbic acid], at rat SVCT1 (evoked currents, −50 mV), the “Hill coefficient (nH)” value is listed as “≈ 1”. The “reduction of evoked currents at pH 5.5 versus pH 7.5” value on rat SVCT1 (extracellular pH 5.5 compared with pH 7.5) was 50%. Further, the “L-ascorbic acid-evoked reversible inward currents” value on rat SVCT1 (oocytes expressing SVCT1, in the presence of Na^+) is “up to −100 nA”; on rat SVCT2, “up to −10 nA”. The “K0.5 (L-ascorbic acid concentration at which currents were half-maximal)” value on rat SVCT1 (−50 mV, 100 mM Na^+) stood at 30 µM.
